Consider twelve molecules from PubChem BioAssay AID624129 (Sanford-Burnham Center for Chemical Genomics, 2012).

Usually IC50 stands for the concentration that gives 50% inhibition. The inhibition is the relative decrease from the control value, in per cent.

Activity calls are given as the source filed them. How the calls were made is not given here.

What all share (assay): CXCR6 receptor antagonists, dose response, cell-based, beta-arrestin, DiscoveRx, APJ panel, uHTS hits (AID 624129)
The target in experiment [1] is C-C chemokine receptor type 6 (Homo sapiens) (UniProt P51684). As to conditions: CXCR6 beta-arrestin (DiscoveRx) antagonist cell assay.
Experiment [2] deals with Apelin receptor (Homo sapiens) (UniProt P35414). Conditions: CXCR6 beta-arrestin (DiscoveRx) antagonist cell assay, APJ.
For experiment [3], the target named is C-X-C chemokine receptor type 6 (Homo sapiens) (UniProt O00574). Conditions: CXCR6 beta-arrestin (DiscoveRx) antagonist cell assay; for inhibition: CXCR6, run 1, dose range 2, at 80 µM (top of the series).
Experiment [4] concerns the target Beta-galactosidase (Escherichia coli) (UniProt Q8VNN2). Conditions: CXCR6 beta-arrestin (DiscoveRx) antagonist cell assay, b-galactosidase.
Setting [5] is: CCR6, dose range 1, mean IC50 across replicates.
Setting [6] is: dose range 1, mean IC50 across replicates.
Where [7] appears, read: CXCR6, dose range 1, mean IC50 across replicates.

Beta-galactosidase (Escherichia coli), sequence (Q8VNN2 whole entry, looked up): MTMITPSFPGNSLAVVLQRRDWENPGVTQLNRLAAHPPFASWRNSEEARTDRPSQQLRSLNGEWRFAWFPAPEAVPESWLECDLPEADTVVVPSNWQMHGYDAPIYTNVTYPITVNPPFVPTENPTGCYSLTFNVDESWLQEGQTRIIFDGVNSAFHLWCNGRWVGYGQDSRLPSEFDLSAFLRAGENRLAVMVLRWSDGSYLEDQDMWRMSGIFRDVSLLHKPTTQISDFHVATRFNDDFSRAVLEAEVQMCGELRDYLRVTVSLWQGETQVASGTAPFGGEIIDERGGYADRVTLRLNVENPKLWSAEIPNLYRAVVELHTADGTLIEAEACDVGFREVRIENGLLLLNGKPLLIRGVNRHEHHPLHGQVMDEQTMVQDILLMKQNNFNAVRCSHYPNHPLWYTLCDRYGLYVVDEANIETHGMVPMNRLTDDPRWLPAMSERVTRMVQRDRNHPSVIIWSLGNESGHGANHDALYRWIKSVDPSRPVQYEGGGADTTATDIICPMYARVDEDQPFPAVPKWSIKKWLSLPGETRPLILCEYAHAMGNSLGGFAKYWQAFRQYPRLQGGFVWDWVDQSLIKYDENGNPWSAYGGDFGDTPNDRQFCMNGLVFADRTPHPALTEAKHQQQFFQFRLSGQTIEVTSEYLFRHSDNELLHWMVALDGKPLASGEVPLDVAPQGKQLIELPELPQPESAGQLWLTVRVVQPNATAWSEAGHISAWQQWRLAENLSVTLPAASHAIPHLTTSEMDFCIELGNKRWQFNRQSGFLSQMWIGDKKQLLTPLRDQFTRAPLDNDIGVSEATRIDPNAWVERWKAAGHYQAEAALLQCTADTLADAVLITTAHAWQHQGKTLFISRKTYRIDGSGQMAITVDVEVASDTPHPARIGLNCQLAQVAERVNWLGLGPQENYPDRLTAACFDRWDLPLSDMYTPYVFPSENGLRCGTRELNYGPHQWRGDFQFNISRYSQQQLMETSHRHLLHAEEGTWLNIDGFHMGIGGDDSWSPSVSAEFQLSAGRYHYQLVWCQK
C-X-C chemokine receptor type 6 (Homo sapiens), sequence (O00574 whole entry, looked up): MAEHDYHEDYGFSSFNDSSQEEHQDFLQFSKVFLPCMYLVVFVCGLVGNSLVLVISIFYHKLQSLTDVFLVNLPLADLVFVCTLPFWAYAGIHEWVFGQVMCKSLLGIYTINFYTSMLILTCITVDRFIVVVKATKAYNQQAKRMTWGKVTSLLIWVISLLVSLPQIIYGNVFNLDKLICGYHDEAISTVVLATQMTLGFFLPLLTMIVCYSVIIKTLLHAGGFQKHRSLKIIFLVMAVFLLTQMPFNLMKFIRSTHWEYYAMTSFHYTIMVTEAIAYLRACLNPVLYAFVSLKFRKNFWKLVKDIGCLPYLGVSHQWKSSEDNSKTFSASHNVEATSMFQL

Regarding `CCN(CC)CC(C)(C)C(=O)/C=C/c1ccc(/C=C/C(=O)C(C)(C)CN(CC)CC)cc1`, the IC50 in experiment [1] (CCR6, dose range 1) was 2.76 µM; in experiment [1] (setting [5]) it was 2.87 µM; in experiment [1] (CCR6, run 2, dose range 1), 2.98 µM; in experiment [2] (dose range 1), 4.46 µM; in experiment [2] (setting [6]) it was 4.05 µM; in experiment [2] (run 2, dose range 1), 3.91 µM. Besides, the IC50 was 3.78 µM in experiment [2] (run 3, dose range 1); 3.11 µM in experiment [3] (CXCR6, dose range 1); 3.27 µM in experiment [3] (setting [7]); 3.64 µM in experiment [3] (CXCR6, run 1, dose range 2); 2.99 µM in experiment [3] (CXCR6, run 2, dose range 1); 3.35 µM in experiment [3] (CXCR6, run 2, dose range 2). Further, the IC50 in experiment [4] (dose range 1) was > 80 µM (inactive); in experiment [4] (setting [6]), above 80 µM.
On to `Cc1ccc(C(C[N+](=O)[O-])Sc2ccc(N)cc2)cc1` (stereo not given), for which the IC50 was 14.3 µM in experiment [1] (CCR6, dose range 1); 18.8 µM in experiment [1] (setting [5]); 23.3 µM in experiment [1] (CCR6, run 2, dose range 1); 15.5 µM in experiment [2] (dose range 1); 19.1 µM in experiment [2] (setting [6]); 22.8 µM in experiment [2] (run 2, dose range 1). The IC50 in experiment [2] (run 3, dose range 1) was above 80 µM; in experiment [3] (setting [7]) it was 21.8 µM; in experiment [3] (CXCR6, run 2, dose range 1), 24 µM; in experiment [4] (dose range 1), 31.8 µM; in experiment [4] (setting [6]) it was 31.8 µM. Besides, the IC50 entry in experiment [3] (CXCR6, dose range 1) is “inactive”. Also, the inhibition in experiment [3] came to 157%.
For `CC(=O)Nc1ccc(NC(=O)c2nc(S(=O)(=O)Cc3cccc(C)c3)ncc2Cl)cc1`, the concentration for half-maximal inhibition (IC50) in experiment [1] (CCR6, dose range 1) is 6.61 µM; in experiment [1] (setting [5]), 5.6 µM; in experiment [1] (CCR6, run 2, dose range 1), 4.59 µM; in experiment [2] (dose range 1), 7.19 µM; in experiment [2] (setting [6]), 8.89 µM; in experiment [2] (run 2, dose range 1), 10.8 µM. The half-inhibitory concentration (IC50) in experiment [2] (run 3, dose range 1) is 8.71 µM; in experiment [3] (setting [7]), 4.95 µM; in experiment [3] (CXCR6, run 2, dose range 1), 4.95 µM; in experiment [4] (dose range 1), > 80 µM (inactive); in experiment [4] (setting [6]), above 80 µM. Further, the inhibition in experiment [3] was 23.1%.
`Cc1cc(Cl)n2c(nc3cc(F)c(F)cc32)c1C#N`: the half-inhibitory concentration (IC50) is 7.09 µM in experiment [1] (CCR6, dose range 1); 9.8 µM in experiment [1] (setting [5]); 12.5 µM in experiment [1] (CCR6, run 2, dose range 1); above 80 µM in experiment [2] (setting [6]); above 80 µM in experiment [2] (run 2, dose range 1); above 80 µM in experiment [2] (run 3, dose range 1). For the same molecule, the half-maximal inhibitory concentration (IC50) in experiment [3] (setting [7]) was 24.8 µM; in experiment [3] (CXCR6, run 1, dose range 2) it was 6.21 µM; in experiment [3] (CXCR6, run 2, dose range 1) it was 53 µM; in experiment [3] (CXCR6, run 2, dose range 2), 6.06 µM; in experiment [4] (dose range 1), > 80 µM (inactive); in experiment [4] (setting [6]) it was above 80 µM. Also, the IC50 entry in experiment [3] (CXCR6, dose range 1) is “inactive”.
Turning to `Cc1cnc(C(=O)Nc2cccc3cccnc23)cn1`, the IC50 in experiment [1] (CCR6, dose range 1) was 28.6 µM; in experiment [1] (setting [5]), 28.6 µM; in experiment [1] (CCR6, run 2, dose range 1) it was above 80 µM; in experiment [2] (setting [6]), above 80 µM; in experiment [2] (run 2, dose range 1), above 80 µM; in experiment [2] (run 3, dose range 1), above 80 µM. Besides, the IC50 was 22.4 µM in experiment [3] (setting [7]); 6.94 µM in experiment [3] (CXCR6, run 1, dose range 2); above 80 µM in experiment [3] (CXCR6, run 2, dose range 1); 12 µM in experiment [3] (CXCR6, run 2, dose range 2); > 80 µM (inactive) in experiment [4] (dose range 1); above 80 µM in experiment [4] (setting [6]). Moreover, the IC50 result in experiment [3] (CXCR6, dose range 1) was “inactive”.
On to `C=CCn1nc([N+](=O)[O-])nc1Sc1cccc2cccnc12`, for which the IC50 in experiment [1] (CCR6, dose range 1) is 39 µM; in experiment [1] (setting [5]) it was 35.3 µM; in experiment [1] (CCR6, run 2, dose range 1), 31.6 µM; in experiment [2] (dose range 1), 75.1 µM; in experiment [2] (setting [6]), 49.3 µM; in experiment [2] (run 2, dose range 1), 36 µM. Moreover, the 50% inhibitory concentration (IC50) in experiment [2] (run 3, dose range 1) was 36.8 µM; in experiment [3] (setting [7]), 59.6 µM; in experiment [3] (CXCR6, run 2, dose range 1) it was above 80 µM; in experiment [4] (dose range 1), > 80 µM (inactive); in experiment [4] (setting [6]), above 80 µM. Also, in experiment [3] (CXCR6, dose range 1), the IC50 result was “inactive”. Further, in experiment [3], the inhibition was 82.2%.
`C=C1C(=O)C23C(O)C1CCC2C12CCCC(C)(COC(C)=O)C1C(O)C3(O)OC2` (stereo not given): the concentration for half-maximal inhibition (IC50) is 5.19 µM in experiment [1] (CCR6, dose range 1); 5.59 µM in experiment [1] (setting [5]); 6 µM in experiment [1] (CCR6, run 2, dose range 1); 9 µM in experiment [2] (dose range 1); 8.77 µM in experiment [2] (setting [6]); 7.67 µM in experiment [2] (run 2, dose range 1). For the same molecule, the 50% inhibitory concentration (IC50) was 9.63 µM in experiment [2] (run 3, dose range 1); 6.64 µM in experiment [3] (CXCR6, dose range 1); 6.29 µM in experiment [3] (setting [7]); 6.49 µM in experiment [3] (CXCR6, run 1, dose range 2); 6.24 µM in experiment [3] (CXCR6, run 2, dose range 1); 5.8 µM in experiment [3] (CXCR6, run 2, dose range 2). The results for the IC50 in experiment [4] (dose range 1) and in experiment [4] (setting [6]) were > 80 µM (inactive) and above 80 µM, respectively.
In the case of `Cc1ccc(S(=O)(=O)Nc2cccc3cccnc23)cc1`, the IC50 in experiment [1] (CCR6, dose range 1) was 7.97 µM; in experiment [1] (setting [5]), 8.52 µM; in experiment [1] (CCR6, run 2, dose range 1), 9.06 µM; in experiment [2] (dose range 1), 16.7 µM; in experiment [2] (setting [6]), 17.8 µM; in experiment [2] (run 2, dose range 1), 19 µM. Further, the IC50 was 17.5 µM in experiment [2] (run 3, dose range 1); 10.3 µM in experiment [3] (CXCR6, dose range 1); 8.04 µM in experiment [3] (setting [7]); 5.75 µM in experiment [3] (CXCR6, run 2, dose range 1); > 80 µM (inactive) in experiment [4] (dose range 1); above 80 µM in experiment [4] (setting [6]). Further, in experiment [3], the inhibition turned out to be 118%.
Turning to `CCN(c1ccccc1)S(=O)(=O)c1ccc(NC(=O)c2nc(S(C)(=O)=O)ncc2Cl)cc1`, the IC50 was 11.6 µM in experiment [1] (CCR6, dose range 1); 11 µM in experiment [1] (setting [5]); 10.3 µM in experiment [1] (CCR6, run 2, dose range 1); 16.2 µM in experiment [2] (dose range 1); 16 µM in experiment [2] (setting [6]); 15.3 µM in experiment [2] (run 2, dose range 1). The IC50 was 16.4 µM in experiment [2] (run 3, dose range 1); 10.8 µM in experiment [3] (CXCR6, dose range 1); 10.9 µM in experiment [3] (setting [7]); 10.5 µM in experiment [3] (CXCR6, run 1, dose range 2); 11.5 µM in experiment [3] (CXCR6, run 2, dose range 1); 10.8 µM in experiment [3] (CXCR6, run 2, dose range 2). Moreover, the IC50 is > 80 µM (inactive) in experiment [4] (dose range 1) and above 80 µM in experiment [4] (setting [6]).
For `COc1ccccc1C(=O)NNC(=S)NC(=O)c1cccs1`, the IC50 was 12.2 µM in experiment [1] (CCR6, dose range 1); 12.1 µM in experiment [1] (setting [5]); 11.9 µM in experiment [1] (CCR6, run 2, dose range 1); 9.86 µM in experiment [2] (dose range 1); 31 µM in experiment [2] (setting [6]); 13.8 µM in experiment [2] (run 2, dose range 1). Besides, the IC50 in experiment [2] (run 3, dose range 1) was 69.4 µM; in experiment [3] (setting [7]), 15 µM; in experiment [3] (CXCR6, run 1, dose range 2), 9.07 µM; in experiment [3] (CXCR6, run 2, dose range 1), 22.8 µM; in experiment [3] (CXCR6, run 2, dose range 2) it was 10.6 µM; in experiment [4] (dose range 1) it was > 80 µM (inactive). Moreover, the IC50 in experiment [4] (setting [6]) was above 80 µM. Moreover, the IC50 result in experiment [3] (CXCR6, dose range 1) was “inactive”.
As for `O=C(CN1CCN(S(=O)(=O)c2ccc(Br)cc2)CC1)Nc1ccc2c(c1)OCO2`, the IC50 in experiment [1] (CCR6, dose range 1) is 20.7 µM; in experiment [1] (setting [5]) it was 20.6 µM; in experiment [1] (CCR6, run 2, dose range 1), 20.6 µM; in experiment [2] (dose range 1), 21.8 µM; in experiment [2] (setting [6]), 24.8 µM; in experiment [2] (run 2, dose range 1) it was 27.8 µM. For the same molecule, the IC50 in experiment [2] (run 3, dose range 1) is above 80 µM; in experiment [3] (setting [7]) it was 20.7 µM; in experiment [3] (CXCR6, run 2, dose range 1), 19.2 µM; in experiment [4] (dose range 1) it was > 80 µM (inactive); in experiment [4] (setting [6]), above 80 µM. For the same molecule, in experiment [3] (CXCR6, dose range 1), the IC50 entry is “inactive”. In addition, the inhibition in experiment [3] is 100%.
`C=C1C(=O)C23CCC4C(C)(C(=O)OC)CCCC4(C)C2CCC1(O)C3` (stereo not given): the IC50 in experiment [1] (CCR6, dose range 1) is 5.19 µM; in experiment [1] (setting [5]), 5.45 µM; in experiment [1] (CCR6, run 2, dose range 1), 5.72 µM; in experiment [2] (dose range 1), 9.66 µM; in experiment [2] (setting [6]), 8.26 µM; in experiment [2] (run 2, dose range 1), 7.57 µM. Moreover, the IC50 in experiment [2] (run 3, dose range 1) is 7.54 µM; in experiment [3] (CXCR6, dose range 1), 5.72 µM; in experiment [3] (setting [7]), 6.19 µM; in experiment [3] (CXCR6, run 1, dose range 2), 6.35 µM; in experiment [3] (CXCR6, run 2, dose range 1), 5.95 µM; in experiment [3] (CXCR6, run 2, dose range 2) it was 6.77 µM. Also, the figures for the IC50 in experiment [4] (dose range 1) and in experiment [4] (setting [6]) were > 80 µM (inactive) and above 80 µM, respectively.
